Where two headings read alike, the source gives them in different places.
Legend:
[1] = tested on: CCRF-CEM; experiment: XTT cytotoxicity/proliferation assay, CCRF-CEM; format: cell-based; conditions: Homo sapiens, CCRF-CEM
Method in brief: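 CCRF-CEM cells plated at 3000 per well, treated next day for 72 h with helquats over 1-100 μmol·l^−1. Viability by XTT reduction (2 h), absorbance 492 nm with 690 nm reference; IC50 from triplicates, repeated in at least three independent experiments, values above 100 μmol·l^−1 extrapolated.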

[2] = tested on: c-myc protein; experiment: Immunodetection of protein c-myc in HGC-27 cell lysates (Western blot); format: cell-based, human; conditions: 50 μmol · l^−1, 24 hour incubation, normalized to β-actin
Method in brief: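 HGC-27 cells seeded at 25,000 cells/cm^2, treated next day with 50 μmol·l^−1 helquat for 24 h. RIPA lysates separated by 12% SDS-PAGE, blotted and probed for c-myc with β-actin loading control; chemiluminescence densitometry, c-myc normalized to β-actin and expressed relative to untreated control.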

[3] = 72 hours of treatment, read-out: IC50 CCRF CEM
[4] = 72 hours, summary of table 9, read-out: concentrations toxic towards CCRF-CEM cells

SMILES: O=[N+]([O-])c1cccc2[nH]cc(/C=C/c3cc[n+]4c(c3)-c3c(ccc5c3-c3cccc[n+]3CC5)CC4)c12 (racemic) [LSA-C9-32, (rac)-(E)-2-(2-(4-nitro-1H-indol-3-yl)vinyl)-6,7,10,11-tetrahydrodipyrido[2,1-a:1′,2′-k][2,9]phenanthroline-5,12-diium trifluoromethanesulfonate]
- IC50 [1, 3]: 11 to 25 µM
- IC50 [1, 4]: < 25 µM

SMILES: Cc1c(C)c2c(c3c1CC[n+]1ccc(/C=C/c4cccc5c4oc4ccccc45)cc1-3)-c1c3ccccc3cc[n+]1CC2 (racemic) [MJA-C13-8, (rac)-(E)-13-(2-(dibenzo[b,d]furan-4-yl)vinyl)-6,7-dimethyl-4,5,8,9-tetrahydroisoquinolino[1,2-a]pyrido[1,2-k][2,9]phenanthroline-3,10-diium trifluoromethanesulfonate]
- IC50 [1, 3]: 26 to 50 µM
- c-myc protein expression relative to control (control = 100%) [2]: 58%

SMILES: C(=C\c1cccc2c1oc1ccccc12)/c1cc[n+]2c(c1)-c1c(ccc3c1-c1c4ccccc4cc[n+]1CC3)CC2.O=S(=O)([O-])C(F)(F)F.O=S(=O)([O-])C(F)(F)F [MSB-C13-8, (E)-13-(2-(dibenzo[b,d]furan-4-yl)vinyl)-4,5,8,9-tetrahydroisoquinolino[1,2-a]pyrido[1,2-k][2,9]phenanthroline-3,10-diium trifluoromethanesulfonate]
- IC50 [1, 3]: 26 to 50 µM

SMILES: Brc1ccc2[nH]cc(/C=C/c3cc4ccccc4[n+]4c3-c3c(ccc5c3-c3cccc[n+]3CCC5)CCC4)c2c1.O=S(=O)([O-])C(F)(F)F.O=S(=O)([O-])C(F)(F)F [MSC-C9-30, 19-((E)-2-(5-bromo-1H-indol-3-yl)vinyl)-6,7,8,11,12,13-hexahydropyrido[1′″,2′″:1″,2″]azepino[4″,3″:5′,6′]benzo[1′,2′:3,4]azepino[1,2-a]quinoline-5,14-diium trifluoromethanesulfonate]
- IC50 [1, 3]: ≤ 10 µM
- IC50 [1, 4]: < 25 µM
- c-myc protein expression relative to control (control = 100%) [2]: 14%

SMILES: C(=C\c1c(-c2ccccc2)[nH]c2ccccc12)/c1cc2ccccc2[n+]2c1-c1c(ccc3c1-c1cccc[n+]1CCC3)CCC2.O=S(=O)([O-])C(F)(F)F.O=S(=O)([O-])C(F)(F)F [MSC-C15-8, 19-((E)-2-(2-phenyl-1H-indol-3-yl)vinyl)-6,7,8,11,12,13-hexahydropyrido[1′″,2′″:1″,2″]azepino[4″,3″:5′,6′]benzo[1′,2′:3,4]azepino[1,2-a]quinoline-5,14-diium trifluoromethanesulfonate]
- IC50 [1, 3]: 11 to 25 µM
- c-myc protein expression relative to control (control = 100%) [2]: 58%

From patent publication US9932339B2, “Helquats with heteroaromatic substituents, preparation thereof, and use thereof as G-quadruplex stabilizers” (USTAV ORGANICKE CHEMIE A BIOCHEMIE AV CR, V.V.I., priority 2014, dated 2018)
